Data taken from patent publication US8501446B2 (Vertex Pharmaceuticals Incorporated, priority 2004, dated 2013).
pKi: −log10 of the molar value.

How the values were obtained:
Assay type in all cases: biochemical
[1] = molecular target: ROCK (Homo sapiens, UniProt Q13464); test: ROCK inhibition assay, standard radioactive enzyme assay ("33P")
Method: Some compounds were screened for their ability to inhibit ROCK using a standard radioactive enzyme assay. Assays were carried out in a solution containing 100 mM HEPES (pH 7.5), 10 mM MgCl2, 25 mM NaCl, 2 mM DTT, and 1.5% DMSO. Final substrate concentrations in the assay were 13 μM [γ-^33P] ATP (25 mCi ^33P ATP/mmol ATP, Perkin Elmer, Cambridge, Mass./Sigma Chemicals, St Louis, Mo.) and 27 μM Myelin Basic Protein (MBP). Final enzyme concentration in the assay was 5 nM ROCK. Assays were carried out at room temperature. 1.5 μl of DMSO stock containing serial dilutions of the compound of the present invention (concentrations ranging from 10 μM to 2.6 nM) was placed in a 96 well plate. 50 μl of Solution 1 (100 mM HEPES (pH 7.5), 10 mM MgCl2, […]) was added to the plate. The reaction was initiated by addition of 50 μl of Solution 2 (100 mM HEPES (pH 7.5), 10 mM MgCl2, 4 mM DTT, […] and 10 nM ROCK). After 2 hours the reaction was quenched with 50 μL of 30% trichloroacetic acid (TCA, Fisher) containing 9 mM ATP. Transfer of 140 μL of the quenched reaction to a glass fiber filter plate (Corning, Cat. No. 3511) was followed by washing 3 times with 5% TCA. 50 μL of Optima Gold scintillation fluid (Perkin Elmer) was added and the plates were counted on a Top Count (Perkin Elmer). After removing mean background values for all of the data points the data was fit using Prism software to obtain a Ki(app).

[2] = molecular target: T1, full length Aurora-A (AA 1-403) (Homo sapiens, UniProt O14965); test: Aurora-A inhibition assay, standard coupled enzyme system; settings: average Ki if more than one value determined
T1 construct: full length Aurora-A (AA 1-403)
T1 sequence (O14965 1-403): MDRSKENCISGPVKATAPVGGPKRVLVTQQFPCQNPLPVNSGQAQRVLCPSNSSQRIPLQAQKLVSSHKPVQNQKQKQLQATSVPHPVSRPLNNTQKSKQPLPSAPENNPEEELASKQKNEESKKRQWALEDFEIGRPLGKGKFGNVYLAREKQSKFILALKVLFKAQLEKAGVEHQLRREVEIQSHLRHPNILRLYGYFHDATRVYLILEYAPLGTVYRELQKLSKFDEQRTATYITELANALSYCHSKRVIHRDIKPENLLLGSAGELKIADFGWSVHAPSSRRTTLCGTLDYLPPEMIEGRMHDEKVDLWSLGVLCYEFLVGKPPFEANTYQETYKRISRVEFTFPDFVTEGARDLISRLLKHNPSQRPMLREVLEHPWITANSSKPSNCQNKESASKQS

[3] = molecular target: JAK2 (Homo sapiens, UniProt O60674); test: JAK2 inhibition assay (radioactive enzyme assay, as for JAK3); settings: average Ki if more than one value determined
JAK2, sequence (O60674 whole entry, species assumed): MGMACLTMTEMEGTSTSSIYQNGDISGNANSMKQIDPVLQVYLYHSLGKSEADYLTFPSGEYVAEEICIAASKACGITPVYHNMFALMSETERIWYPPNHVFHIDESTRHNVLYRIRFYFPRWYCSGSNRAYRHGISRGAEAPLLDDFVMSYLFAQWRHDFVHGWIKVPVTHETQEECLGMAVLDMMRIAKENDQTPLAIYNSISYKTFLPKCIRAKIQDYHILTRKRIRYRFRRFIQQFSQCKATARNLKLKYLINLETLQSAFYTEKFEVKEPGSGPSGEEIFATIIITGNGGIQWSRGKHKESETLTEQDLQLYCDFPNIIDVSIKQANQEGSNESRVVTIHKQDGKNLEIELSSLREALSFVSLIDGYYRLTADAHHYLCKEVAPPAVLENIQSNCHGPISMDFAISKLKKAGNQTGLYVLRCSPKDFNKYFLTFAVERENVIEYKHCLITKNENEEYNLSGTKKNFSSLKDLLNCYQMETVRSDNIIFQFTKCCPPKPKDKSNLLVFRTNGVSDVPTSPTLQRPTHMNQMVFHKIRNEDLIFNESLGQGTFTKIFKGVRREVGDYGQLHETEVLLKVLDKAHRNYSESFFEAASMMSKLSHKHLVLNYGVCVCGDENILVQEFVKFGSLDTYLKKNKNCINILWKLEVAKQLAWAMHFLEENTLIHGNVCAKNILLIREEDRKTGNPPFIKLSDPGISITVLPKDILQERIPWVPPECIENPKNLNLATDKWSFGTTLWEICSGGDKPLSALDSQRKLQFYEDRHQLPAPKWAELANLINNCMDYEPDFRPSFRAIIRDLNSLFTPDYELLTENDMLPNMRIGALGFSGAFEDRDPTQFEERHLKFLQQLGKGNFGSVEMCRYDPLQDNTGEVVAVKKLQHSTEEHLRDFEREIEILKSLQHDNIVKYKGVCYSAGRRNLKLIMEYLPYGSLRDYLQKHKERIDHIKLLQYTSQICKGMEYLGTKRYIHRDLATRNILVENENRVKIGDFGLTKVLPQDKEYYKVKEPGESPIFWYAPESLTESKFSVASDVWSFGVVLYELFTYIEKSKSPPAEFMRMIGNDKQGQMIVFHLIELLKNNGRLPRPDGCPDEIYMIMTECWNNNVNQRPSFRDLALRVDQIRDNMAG
Summary of the method: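 Both kinases: poly(Glu)4Tyr substrate in 100 mM HEPES pH 7.4, 10 mM MgCl2, 1 mM DTT. Run 20 min at 25° C, TCA stop, filter-bound ³³P counted, Ki(app) fitted after background subtraction. JAK3: final [γ-³³P]ATP 5 μM, enzyme added as 2 nM solution. JAK2: final poly(Glu)4Tyr 15 μM, final ATP 12 μM.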

[4] = molecular target: T2, Aurora-C (Homo sapiens, UniProt Q9UQB9); test: Aurora-C inhibition assay, coupled enzyme system as for Aurora-A; settings: average Ki if more than one value determined
T2 sequence (Q9UQB9 1-309): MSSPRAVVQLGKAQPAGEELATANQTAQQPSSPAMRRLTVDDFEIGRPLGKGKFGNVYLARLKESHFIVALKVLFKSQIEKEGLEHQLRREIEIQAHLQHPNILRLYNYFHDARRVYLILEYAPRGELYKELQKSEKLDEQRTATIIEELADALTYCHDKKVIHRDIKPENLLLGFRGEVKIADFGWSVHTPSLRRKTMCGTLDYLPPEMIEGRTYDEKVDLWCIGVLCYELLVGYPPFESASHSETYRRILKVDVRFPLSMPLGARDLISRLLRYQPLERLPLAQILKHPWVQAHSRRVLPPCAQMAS
Summary of the method: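 Ki values came from nonlinear regression of 10-min reaction rates measured by a pyruvate kinase/lactate dehydrogenase-coupled readout at 30 °C. Compounds, titrated 0.002-30 μM, were preincubated 10 min with enzyme (Aurora-A 35 nM, or Aurora-C) and 800 μM LRRASLG in HEPES pH 7.5 buffer with 3% DMSO; ATP (200 μM) started reactions.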

[5] = molecular target: Aurora-B (Homo sapiens, UniProt Q96GD4); test: Aurora-B inhibition assay, radioactive assay; settings: average Ki if more than one value determined
Aurora-B, sequence (Q96GD4 whole entry): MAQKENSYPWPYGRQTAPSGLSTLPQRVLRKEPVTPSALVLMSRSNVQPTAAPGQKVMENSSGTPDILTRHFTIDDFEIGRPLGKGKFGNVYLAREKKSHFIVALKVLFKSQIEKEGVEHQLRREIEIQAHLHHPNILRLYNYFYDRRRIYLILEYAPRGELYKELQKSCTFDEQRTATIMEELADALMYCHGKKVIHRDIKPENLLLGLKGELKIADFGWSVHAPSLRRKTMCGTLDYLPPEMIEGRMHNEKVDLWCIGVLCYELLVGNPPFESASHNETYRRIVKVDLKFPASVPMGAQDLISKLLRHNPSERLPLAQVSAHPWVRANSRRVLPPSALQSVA
Summary of the method: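 Aurora-B protein substituted into the standard radioactive kinase format: reaction quenched with TCA, product captured on glass fiber filters and 33P counted. Ki(app) derived by fitting background-corrected counts against inhibitor concentration.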

ROCK, sequence (Q13464 whole entry): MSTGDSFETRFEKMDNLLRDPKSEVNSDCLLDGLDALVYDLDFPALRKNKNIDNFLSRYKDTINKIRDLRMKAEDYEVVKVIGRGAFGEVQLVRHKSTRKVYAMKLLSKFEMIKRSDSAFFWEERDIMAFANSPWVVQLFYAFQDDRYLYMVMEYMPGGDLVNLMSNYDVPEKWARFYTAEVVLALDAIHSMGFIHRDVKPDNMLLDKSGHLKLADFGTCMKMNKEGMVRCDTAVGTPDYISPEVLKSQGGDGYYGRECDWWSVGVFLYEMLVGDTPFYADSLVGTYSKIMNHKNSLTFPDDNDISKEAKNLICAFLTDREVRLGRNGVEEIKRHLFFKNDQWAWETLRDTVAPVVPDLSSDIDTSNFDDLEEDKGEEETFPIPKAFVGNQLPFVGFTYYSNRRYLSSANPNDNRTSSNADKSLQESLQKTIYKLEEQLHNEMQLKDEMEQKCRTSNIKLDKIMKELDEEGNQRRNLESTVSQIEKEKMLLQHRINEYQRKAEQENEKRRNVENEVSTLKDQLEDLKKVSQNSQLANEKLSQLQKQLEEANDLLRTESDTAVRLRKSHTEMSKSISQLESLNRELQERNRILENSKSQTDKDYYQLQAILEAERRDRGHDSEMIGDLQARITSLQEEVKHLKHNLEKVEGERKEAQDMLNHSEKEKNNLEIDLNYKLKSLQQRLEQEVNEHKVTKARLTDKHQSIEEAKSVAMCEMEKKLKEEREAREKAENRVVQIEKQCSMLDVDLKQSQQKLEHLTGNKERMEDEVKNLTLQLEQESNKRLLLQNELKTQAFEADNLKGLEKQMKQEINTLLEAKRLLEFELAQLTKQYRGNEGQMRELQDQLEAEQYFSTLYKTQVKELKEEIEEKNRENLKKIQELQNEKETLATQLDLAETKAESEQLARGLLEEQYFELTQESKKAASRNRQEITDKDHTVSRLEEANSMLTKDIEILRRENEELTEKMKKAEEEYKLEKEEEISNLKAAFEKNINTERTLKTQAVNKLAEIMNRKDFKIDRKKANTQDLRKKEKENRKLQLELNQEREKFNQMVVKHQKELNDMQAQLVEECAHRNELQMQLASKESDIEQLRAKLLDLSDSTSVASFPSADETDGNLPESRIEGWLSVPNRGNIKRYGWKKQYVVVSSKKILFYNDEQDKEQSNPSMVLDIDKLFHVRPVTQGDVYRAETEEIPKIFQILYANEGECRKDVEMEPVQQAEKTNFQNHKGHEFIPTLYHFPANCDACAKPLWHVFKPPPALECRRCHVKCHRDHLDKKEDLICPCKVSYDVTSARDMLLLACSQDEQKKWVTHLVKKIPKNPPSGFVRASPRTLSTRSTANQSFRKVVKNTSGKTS

Compound | pKi [1] | pKi [2] | pKi [3] | pKi [4] | pKi [5]
COc1cnc2[nH]cc(-c3cccc(N4C[C@@H](C)N(C(C)=O)[C@@H](C)C4)n3)c2c1 [Compound 18] | 5.30 to 6.30 | 5.30 to 6.30 | > 6.30 | – | –
CC(=O)N1[C@H](C)CN(c2cccc(-c3c[nH]c4ncc(Cl)cc34)n2)C[C@@H]1C [Compound 19] | > 6.30 | > 6.30 | > 6.30 | – | –
CCOC(=O)N1CCCN(c2nccc(-c3c[nH]c4ncc(OC)cc34)n2)CC1 [Compound 33] | > 6.30 | > 6.30 | > 6.30 | – | –
COC(=O)c1cnc2[nH]cc(-c3cccc(N4C[C@@H](C)N(C(C)=O)[C@@H](C)C4)n3)c2c1 [Compound 35] | > 6.30 | > 6.30 | > 6.30 | – | –
C[C@H](Nc1nc(-c2c[nH]c3ncc(Cl)cc23)ncc1F)C(=O)NCC(F)(F)F [Compound 369] | – | > 6.30 | – | > 6.30 | > 6.30
C[C@H](Nc1cccc(-c2c[nH]c3ncc(Cl)cc23)n1)c1ccc(F)cc1 [Compound 395] | – | > 6.30 | > 6.30 | – | > 6.30
